# Reference: patent US8865653B2, “Method of treatment for immunogenic treatment resistant cancer” (Institut Gustave Roussy, priority 2010, dated 2014)
# B1: IL-6: recombinant mouse cytokine (protein, UniProt P08505 25-211, looked up)
# Interleukin-6: FPTSQVRRGDFTEDTTPNRPVYTTSQVGGLITHVLWEIVEMRKELCNGNSDCMNNDDALAENNLKLPEIQRNDGCYQTGYNQEICLLKISSGLLEYHSYLEYMKNNLKDNKKDKARVLQRDTETLIHIFNQEVKDLHKIVLPTPISNALLTDKLESQKEWLRTKTIQFILKSLEEFLKVTLRSTRQT
# What was measured:
# [1] = tested on: U2OS cells; assay: CRT exposure by anti-CRT surface staining and FACS (Example 4); type: cell-based, human; conditions: for CRT exposure: dose dependent fashion, nanomolar range; for effect of antioxidant on CRT exposure upon Digoxin and Digitoxin treatment: NAC and GSH pretreated U2OS cells
# Description: (D) Cardiac glycosides at 1 μM have been analysed for CRT exposure by means of anti-CRT surface staining and FACS quantification.
# (F) U2OS cells treated with the indicated doses of Digoxin and Digitoxin were analyzed for CRT exposure by means of FACS quantified surface staining.
# [2] = tested on: U2OS cells; assay: ATP release ENLITEN assay (Example 4); type: cell-based, human; conditions: 15 h, dose dependent fashion, nanomolar range
# Description: (H) ATP release was quantified by ENLITE 15 h after treatment in the supernatant of cells.
# (§1) After cell death induction, extracellular ATP was measured by luciferin-based ENLITEN ATP Assay (Promega, Madison, USA) following the manufacturer's instructions. Intracellular ATP was measured using an ATP Assay kit (Calbiochem, Darmstadt, Germany) based on luciferin-luciferase conversion following the manufacturer's instructions. For assessment of the chemoluminescent signal, the plates were read in a Fluostar luminometer (BMG Labtech).
# [3] = tested on: U2OS cells; assay: HMGB1 release ELISA; type: cell-based, human; conditions: 24 h, dose dependent fashion, nanomolar range
# Description: U2OS cells were seeded in 6 well plates 24 h before the experiment. The medium was changed to fresh DMEM before the treatment was applied. Supernatants were collected at 24 h post treatment, dying tumor cells were removed by centrifugation and supernatants were collected and shock frozen in liquid nitrogen. Quantification of HMGB1 in the collected supernatants was performed by enzyme-linked immunosorbent assay according to the manufacturer's instructions.
# [4] = tested on: breast cancer; assay: Retrospective clinical study, digoxin during chemotherapy; type: in vivo, human
# Description: (D) D1: Overall survival of 150 breast cancer patients. 50 digoxin cotreated patients are opposed by 100 non digoxin treated controls.
# We retrospectively constructed a patient database using data obtained from Institut Gustave Roussy. The patients were divided into the digoxin receiving and into the control group. For each digoxin receiving patient two control patients with identical tumor grade and chemotherapeutic treatment have been chosen. All digoxin receiving patients were treated with digoxin while receiving chemotherapy. Age at diagnosis, pathological tumor size, lymph node involvement, tumor grade, hormone receptors, endocrine treatments, occurrence of events and follow-up were extracted from medical files and recorded in the database. After generation of the patient database statistical analyses were performed in a blinded fashion. Survival rates were estimated using the Kaplan-Meier method.
# [5] = tested on: MCA205 cells; assay: In vivo anti-tumor vaccination with MitoC / Digoxin treated MCA205 cells; set-up: species or system mice; conditions: for vaccination with cells treated with digoxin alone: single treatment
# [6] = tested on: U2OS cells; assay: US Drug library screen: CRT-GFP, HMGB1-GFP, quinacrine; conditions: 1 μM, 4 h / 24 h / 16 h
# [7] = tested on: MCA205 cells; conditions: Martins I et al, Oncogene 2010; cited from earlier work
# [8] = tested on: γδ T cells; assay: DC-tumor mixed lymphocyte cultures (IL-1β, IL-17A ELISA); type: cell-based, mouse; conditions: 20 μg/ml IL-1RA
# Description: (D) DX-treated MCA205 loaded DC/γδ T cell cross-talk was also performed in the presence of 20 μg/ml IL-1RA (Amgen) or anti-IL-23 or IL-23R neutralizing antibodies or 10 μg/ml IL-18BP or 20 μM CH-223191. IL-1β and IL-17A release was measured at 48 hrs in ELISA.
# DC were propagated in Iscoves's medium (Sigma Aldrich) supplemented with J558 supernatant, 100 UI/ml Penicillin, 100 μg/ml Streptomycin, 2 mM L-glutamine, 50 μM 2-mercaptoethanol (Sigma), 10% heat-inactivated and filtered, 10% FCS and 40 ng/ml GM-CSF. DC were used between day 8 and 12 when the proportion of CD11c/MHC class II+ cells was >80%. In mixed cocultures, DC were seeded at 10^5/100 μl/well in U bottom 96 well plates. Tumor cells were treated with 25 μM DX or 2 μM MTX for 16 hrs, washed in PBS and added into these wells at 7.5×10^5/100 μl/well. 2×10^4/50 μl γδ T cells were added into the wells 12 hrs later. Supernatant was collected 48 hrs later.
# [9] = tested on: LN resident γδ T cells; assay: Cytokine stimulation of LN-derived γδ T cells (IL-17); type: cell-based, mouse
# Description: (A-B) Cocultures of naïve LNs derived γδ T (A-B) or TCR δ^−T (A) cells in the presence of recombinant mouse cytokines (1 μg/ml IL-1β or/and IL-23, 5 μg/ml TGF-β, 10 μg/ml IL-6) (A) with or without TCR cross-linking with anti-CD3ε mAb pre-coated plates (5 μg/ml, Clone 145-2C11) (B).
# Naïve C57Bl/6 mice aged between 8-10 weeks were sacrificed and the skin-draining lymph nodes (LNs) including inguinal, popliteal, superficial cervical, axillary and brachial LNs were collected. LNs were squeezed with tweezers gently in digesting buffer, kept at 37° C. for 20 min and then pass through […] cell strainer to get single cell suspension. Dead cells were removed using Dead Cell Removal Kit (Miltenyi Biotec) before purifying γδ T cells with TCRγ/δ^+ T Cell Isolation Kit (Miltenyi Biotec). An autoMACS™ Separator was used with the recommended programs. Purity of this isolation normally reached 95%. The TCR δ^− CD3^+ cells fraction was also collected from the final separation step and was called ‘non γδ T’ cells for some experiments. Day 2 after DX or PBS treatment, 2.5×10^5 cells were injected directly into the tumor with insulin syringes in adoptive transfer setting.
# [10] = tested on: U2OS cells; assay: Analysis of surface exposed CRT (HaloTag ligand, anti-CRT immune staining)
# [11] = tested on: U2OS cells; type: cell-based
# Description: The data is depicted as representative images (A) and (B) normalized Bax-GFP granularity values.
# The data represents mean±s.e.m. of quadruplicates from a representative experiment. […] 16 h after treatment, cell death was monitored by simultaneous staining with 3,3 dihexyloxacarbocyanine iodide (DiOC6(3)) and propidium iodide (PI), and the percentage of dying (DiOC6(3)^low PI^−, open bars) and dead (DiOC6(3)^low PI^+, closed bars) cells was determined by cytofluorometry.
# Cell death was quantified by cytofluorometric analysis using a FACS Vantage (Becton Dickinson, Mountain View, USA) as described previously (REF). Thus, cells were stained with 40 nM 3,3 dihexyloxacarbocyanine iodide (DiOC6(3); Molecular Probes, Eugene, Oreg., USA) for 30 min at 37° C. and concomitantly with 1 μg/ml propidium iodide (PI; Sigma Aldrich) for 30 min at 37° C. to determine the mitochondrial transmembrane potential. Data were statistically evaluated using CellQuest Pro software (Becton Dickinson, Mountain View, USA).
# [12] = tested on: U2OS cells; assay: ATP release assays (quinacrine, luciferin-based); type: cell-based, human; conditions: 16 h post-treatment, intracellular and extracellular ATP
# Description: In short, cells were labeled with 1 μM quinacrine in Krebs-Ringer solution (125 mM NaCl, 5 mM KCl, 1 mM MgSO4, 0.7 mM KH2PO4, 2 mM CaCl2, 6 mM glucose and 25 mM Hepes, pH 7.4) for 30 min at 37° C.
# After incubation in quinacrine solution (as described above), cells were rinsed and resuspended in PBS containing 1 μg/ml PI. The samples were analyzed by means of a FACS Vantage (Becton Dickinson) and the data was statistically evaluated using the CellQuest Pro software (BD Biosciences).
# as §1
# [13] = tested on: eIF2α; assay: Immunoblotting of eIF2α / PERK phosphorylation; type: cell-based
# Text: (E) The phosphorylation status of eIF2α has been assessed by immunoblotting against the phosphoneoepitope Ser51 of eIF2α by means of a monoclonal antibody. A polyclonal antibody has been used to visualize whole eIF2α protein levels.
# [14] = tested on: U2OS cells stably expressing CRT-GFP; assay: CRT-GFP redistribution (granularity, nuclear shape) by automated microscopy; ICCB library screen; type: cell-based, human
# Description: The data is depicted as mean±s.e.m. of quadruplicates from a representative experiment. (C) Immunofluorescene was conducted on CRT-GFP expressing cells by means of staining with anti-CRT antibody and subsequent confocal image acquisition. (D) CRT has been cloned in frame n-terminal to a HaloTag® sequence followed by a KDEL ER retention signal. (E) The impermeable HaloTag® ligand forms covalent bonds exclusively with surface exposed HaloTag®-CRT fusion protein, whereas intracellular HaloTag®-CRT remains undetected.
# Compounds from the ICCB known bioactive compounds library have been tested for their capacity to induce CRT-exposure. […] The cells were incubated for 4 h and were acquired by means of automated microscopy. The data is depicted as dot plots and representative images (B).
# After washing with PBS 4 viewfields per well were acquired by means of a BD pathway 855 automated microscope.
# [15] = tested on: MCA205 cells; assay: In vivo anti-tumor vaccination with treated MCA205 cells (Example 3); conditions: s.c. injection, rechallenge with live tumor cells
# Description: (F) MCA205 cells have been used for tumor vaccination in vivo. […] The mice have been rechallenged after 6 days with living cells and the tumor growth is depicted in the survival plot (n=10).
# Tumor growth was evaluated for at least 50 days.
molecule,measurement,setting,value
C[C@H]1O[C@@H](O[C@H]2[C@@H](O)C[C@H](O[C@H]3[C@@H](O)C[C@H](O[C@H]4CC[C@@]5(C)[C@H](CC[C@@H]6[C@@H]5CC[C@]5(C)[C@@H](C7=CC(=O)OC7)CC[C@]65O)C4)O[C@@H]3C)O[C@@H]2C)C[C@H](O)[C@@H]1O [digitoxin],CRT exposure,[1],induce CRT exposure
same,ATP release,[2],ATP release
same,HMGB1 release,[3],HMGB1 release
C[C@H]1O[C@@H](O[C@H]2[C@@H](O)C[C@H](O[C@H]3[C@@H](O)C[C@H](O[C@H]4CC[C@@]5(C)[C@H](CC[C@@H]6[C@@H]5C[C@@H](O)[C@]5(C)[C@@H](C7=CC(=O)OC7)CC[C@]65O)C4)O[C@@H]3C)O[C@@H]2C)C[C@H](O)[C@@H]1O [digoxin],"overall survival effect of digoxin, anthracyclin based chemotherapy subgroup",[4]; 20 digoxin cotreated vs 40 controls,completely disappears
same,overall survival of patients that received digoxin during chemotherapy,[4]; 50 digoxin cotreated vs 100 controls,increased overall survival
same,CRT exposure,[1],induce CRT exposure
same,"vaccinating effect, MCA cells cotreated with digoxin and MitoC","[5]; 20 μM MitoC with 30 μM Digoxin O/N, immunocompetent mice, rechallenge after 6 days",kept living cells of the same kind from forming a tumor
same,vaccination with cells treated with digoxin alone,[5],led to tumor formation at the vaccination site
same,vaccination with cells treated with digoxin alone,[5]; listed as Digoxin,did not preclude the living cells from forming a tumor after rechallenge
same,ATP release,[2],ATP release
same,HMGB1 release,[3],HMGB1 release
COc1cccc2c1C(=O)c1c(O)c3c(c(O)c1C2=O)C[C@@](O)(C(=O)CO)C[C@@H]3O[C@H]1C[C@H](N)[C@@H](O)[C@H](C)O1 [epirubicin],rank in screen for exposing CRT and emitting HMGB1 and ATP,[6],"most potent in exposing CRT, and emitting HMGB1 and ATP"
tunicamycin,immunogenic cell death when combined with cisplatin,[7],could induce immunogenic cell death when combined with cisplatin
IL-1RA: IL-1R1/IL-1β antagonist (Amgen),IL-1β production in DC/γδ T cell co-culture,[8],not modified
same,DC/γδ T cell cross-talk (IL-17 production) in the presence of dying cells,"[8]; DX-treated MCA205 loaded DC, 48 hrs",entirely abrogated the DC/γδ T cell cross-talk
TGF-β,IL-17 production by LN-resident γδ T cells in response to recombinant cytokines,[9],failed to produce IL-17
N[C@@H](CCC(=O)N[C@@H](CS)C(=O)NCC(=O)O)C(=O)O [GSH],effect of antioxidant on CRT exposure upon Digoxin and Digitoxin treatment,[1],significantly diminished CRT exposure
CC(=O)N[C@@H](CS)C(=O)O [NAC],effect of antioxidant on CRT exposure upon Digoxin and Digitoxin treatment,[1],significantly diminished CRT exposure
"[NH2][Pt]([NH2])([Cl])[Cl] [CDDP, cisplatin]",surface exposure of CRT-HaloTag,"[10]; cell-impermeable HaloTag ligand, microscopy and cytofluorometry",failed to induce the surface exposure
same,surface immunofluorescence staining of CRT,[10]; non-permeabilized CRT-GFP cells,no immunodetectable CRT was found on the surface
same,IC50,"[11]; short-term experiments, loss of the mitochondrial transmembrane potential ΔΨm, read-out: IC50, imminent cell death",~150 µM
same,"mitochondrial perturbations (ΔΨm dissipation, Bax-GFP relocation)",[11]; used at their IC50,induced similar mitochondrial perturbations
same,ATP release,[12],induced ATP release
same,eIF2α phosphorylation on serine 51,[13]; phospho-neoepitope-specific antibody,unable to activate
same,activating phosphorylation of PERK,[13]; shortly after treatment,not CDDP
same,CRT-GFP granularity (relocation to peripheral granular distribution),"[14]; 1 μM MTX, 150 μM CDDP, 300 μM OXP",not after treatment with CDDP
same,chromatin condensation (nuclear apoptosis),[14]; as efficiently as MTX or OXP,able to induce chromatin condensation
same,protective anticancer immune response after vaccination with drug-treated MCA205 cells,[15],inefficient in inducing a protective anticancer immune response
B1,IL-17 production by LN-resident γδ T cells in response to recombinant cytokines,[9],failed to produce IL-17
